# Where a name gives a salt, the structure may show the parent alone.
# Assay: Dynamic vapor sorption (DVS) analysis
# Assay type: physicochemical
smiles,measurement,setting,value
CCCCCCCCC/C(=C\C1=C(C)C(=O)C(OC)=C(OC)C1=O)C(=O)O [Compound 1 calcium salt],maximum water adsorption (DVS),at 82% RH,about 1.52%
same,water retained at the end of the desorption branch (DVS),end of desorption,0.19%
same,crystalline form of post-DVS sample (XRPD) versus pre-DVS sample,subsequent XRPD analysis after DVS,maintained the same crystalline form

# — patent US20260108483A1, “METHODS AND COMPOSITIONS FOR PREVENTING THE PROGRESSION OF DIABETIC RETINOPATHY AND RELATED CONDITIONS” (Opus Genetics, Inc., priority 2023, published 2026)
